Measured values: article PMC9913425, “Pentacyclic Triterpenoids-Based Ionic Compounds: Synthesis, Study of Structure–Antitumor Activity Relationship, Effects on Mitochondria and Activation of Signaling Pathways of Proliferation, Genome Reparation and Early Apoptosis” (Cancers, 2023)

Tests used:
[1] = test system: mitochondria of Jurkat tumor cells; assay: Mitochondrial damage (MitoSense Red staining); assay type: cell-based; settings: compound at IC50 concentration, incubation 2 h
[2] = test system: Jurkat cells; assay: Apoptosis/necrosis induction (Annexin V Alexa Fluor488, 7AAD staining); assay type: cell-based; settings: compound at IC50 concentration, incubation 2 h
From the text: Multiparametric evaluation of marker molecules, along with the detection of damage to the mitochondrial membrane, makes it possible to clearly determine the type of cell death. The method of cell staining with three different dyes (Annexin V Alexa Fluor488, 7AAD and MitoSense Red) provides simultaneous specification of various aspects of the state of the cell membrane, the state of DNA and the viability of mitochondria; together, it is a reliable sign of intrinsic and mitochondrial apoptosis pathway. Normal cells with intact mitochondrial membranes have high MitoSense Red fluorescence, while cells with decoupled oxidation and phosphorylation have much lower fluorescence. […]
Figure 1 The ratio of the level of mito-damage and the level of apoptosis in Jurkat cells of ionic compounds based on ursolic, oleanolic and betulinic acids.

[3] = test system: A2780; assay: In vitro cytotoxicity, IC50 by flow cytometry (Guava ViaCount); assay type: cell-based, human
Method: (§1) Human cancer cell line HeLa, HL60, A2780 was obtained from the HPA Culture Collections (Salisbury, UK). Cells (Jurkat, K562, U937, Hek293, Fibroblasts) were purchased from Russian Cell Culture Collection (Institute of Cytology of the Russian Academy of Sciences, […], Russia) and cultured according to standard protocols and sterile technique. […] Cells were maintained in RPMI 1640 (Jurkat, K562, U937, HL60) (Gibco, Billings, MT, USA) supplemented with […], 10% FBS (Sigma) and 100 units/mL penicillin–streptomycin (Sigma). All types of cells were grown in an atmosphere of 5% CO2 at 37 °C. The cells were subcultured at 2–3 days intervals. Cells were then seeded in 24-well plates at 5 × 10^4 cells per well and incubated overnight. Jurkat, K562, U937, HL60 cells were subcultured at 2-day intervals with a seeding density of 1 × 10^5 cells per 24-well plates in RPMI with 10% FBS.
(§2) The antitumor activity of the synthesized ionic compounds was initially assessed in vitro on Jurkat, K562, U937, HL60, HEK293, A2780 cell lines, including the determination of IC50 by flow cytometry involving Guava ViaCount (Millipore) reagent kits.

[4] = test system: HL60; assay: as above; assay type: cell-based, human
Method: as §1, §2

[5] = test system: U937; assay: as above; assay type: cell-based
Method: as §1, §2

[6] = test system: K562; assay: as above; assay type: cell-based
Method: as §1, §2

[7] = test system: Jurkat; assay: as above; assay type: cell-based; settings: Jurkat cells
Method: as §1, §2

[8] = test system: HEK293; assay: as above; assay type: cell-based; settings: conditionally normal
Method: as §1, §2

[9] = Homo sapiens, A2780, A2780 cells
[10] = Homo sapiens, HL-60, HL60 cells
[11] = Homo sapiens, U-937, U937 cells
[12] = Homo sapiens, HEK293, HEK293 cells

Row | Compound | Mito-Damage (%) [1] | Apoptosis (%) Early [2] | Apoptosis (%) Late [2] | Apoptosis (%) Necrosis [2] | IC50 ([3]; A2780 cells) | IC50 ([4]; HL60 cells) | IC50 ([5]; U937 cells) | IC50 ([6]; K562 cells) | IC50 [7] | IC50 ([8]; HEK293 cells) | IC50 [3, 9] | IC50 [4, 10] | IC50 [5, 11] | IC50 ([6]; Homo sapiens, K562, K562 cells) | IC50 ([7]; Homo sapiens, Jurkat) | IC50 [8, 12]
1 | 1-Benzyl-3-methylimidazolium (3β)-3-hydroxyolup-20(29)-en28-oylate [17d] | 9.69% | 4.82% | 1.44% | 2.11% | 87 ± 9 nM | 19 ± 2 nM | 40 ± 2 nM | 44 ± 2 nM | 16 ± 1 nM | 189 ± 16 nM |  |  |  |  |  | 
2 | 1-Benzyl-3-methylimidazolium (3β)-3-hydroxyours-12-en-28-oylate [16d] |  |  |  |  | 27 ± 2 nM | 5 ± 1 nM | 11 ± 1 nM | 12 ± 1 nM | 11 ± 1 nM | 56 ± 4 nM |  |  |  |  |  | 
3 | 1-Butyl-3-methylimidazolium (3β)-3-hydroxyolean-12-en-28-oylate [15b] |  |  |  |  | 79 ± 7 nM | 17 ± 2 nM | 38 ± 2 nM | 41 ± 2 nM | 19 ± 1 nM | 167 ± 16 nM |  |  |  |  |  | 
4 | 1-Butyl-3-methylimidazolium (3β)-3-hydroxyolup-20(29)-en28-oylate [17b] | 17.39% | 6.45% | 3.38% | 1.92% | 74 ± 6 nM | 15 ± 1 nM | 32 ± 3 nM | 39 ± 3 nM | 14 ± 1 nM | 159 ± 14 nM |  |  |  |  |  | 
5 | 1-Butyl-3-methylimidazolium (3β)-3-hydroxyours-12-en-28-oylate [16b] |  |  |  |  | 396 ± 35 nM | 89 ± 8 nM | 299 ± 14 nM | 336 ± 16 nM | 97 ± 6 nM | 935 ± 94 nM |  |  |  |  |  | 
6 | 1-Hexyl-3-methylimidazolium (3β)-3-hydroxyolean-12-en-28-oylate [15c] |  |  |  |  | 157 ± 18 nM | 39 ± 4 nM | 69 ± 3 nM | 80 ± 4 nM | 43 ± 2 nM | 392 ± 38 nM |  |  |  |  |  | 
7 | 1-Hexyl-3-methylimidazolium (3β)-3-hydroxyolean-12-en-28-oylate [15d] |  |  |  |  | 231 ± 22 nM | 69 ± 7 nM | 143 ± 7 nM | 159 ± 8 nM | 107 ± 6 nM | 581 ± 47 nM |  |  |  |  |  | 
8 | 1-Hexyl-3-methylimidazolium (3β)-3-hydroxyolup-20(29)-en28-oylate [17c] | 8.71% | 3.97% | 1.70% | 2.82% | 113 ± 10 nM | 26 ± 3 nM | 54 ± 3 nM | 56 ± 3 nM | 29 ± 2 nM | 293 ± 31 nM |  |  |  |  |  | 
9 | 1-Hexyl-3-methylimidazolium (3β)-3-hydroxyours-12-en-28-oylate [16c] |  |  |  |  | 39 ± 4 nM | 7 ± 1 nM | 14 ± 1 nM | 16 ± 1 nM | 7 ± 1 nM | 81 ± 8 nM |  |  |  |  |  | 
10 | C[n+]1ccn(CCOC(=O)[C@]23CCC(C)(C)CC2C2=CCC4[C@@]5(C)CC[C@H](O)C(C)(C)C5CC[C@@]4(C)[C@]2(C)CC3)c1 (stereo partly drawn) [9a, 1-(2-{[(3β)-3-Hydroxyolean-12-en-28-oyl]oxy}ethyl)-3-methylimidazolium Bromide] | 5.07% | 1.72% | 2.79% | 1.96% |  |  |  |  |  |  | 132 ± 11 nM | 24 ± 2 nM | 69 ± 4 nM | 78 ± 4 nM | 37 ± 2 nM | 259 ± 24 nM
11 | C[n+]1ccn(CCCCOC(=O)[C@]23CCC(C)(C)CC2C2=CCC4[C@@]5(C)CC[C@H](O)C(C)(C)C5CC[C@@]4(C)[C@]2(C)CC3)c1 (stereo partly drawn) [9b, 1-(4-{[(3β)-3-Hydroxyolean-12-en-28-oyl]oxy}butyl)-3-methylimidazolium bromide] |  |  |  |  |  |  |  |  |  |  | 257 ± 24 nM | 46 ± 4 nM | 135 ± 7 nM | 149 ± 7 nM | 29 ± 2 nM | 449 ± 41 nM
12 | C[n+]1ccn(CCCCCCOC(=O)[C@]23CCC(C)(C)CC2C2=CCC4[C@@]5(C)CC[C@H](O)C(C)(C)C5CC[C@@]4(C)[C@]2(C)CC3)c1 (stereo partly drawn) [9c, 1-(6-{[(3β)-3-Hydroxyolean-12-en-28-oyl]oxy}hexyl)-3-methylimidazolium bromide] |  |  |  |  | 234 ± 21 nM | 31 ± 3 nM | 119 ± 5 nM | 133 ± 6 nM | 26 ± 1 nM | 318 ± 29 nM |  |  |  |  |  | 
13 | C[C@@H]1CC[C@]2(C(=O)OCCn3cc[n+](C)c3)CC[C@]3(C)C(=CCC4[C@@]5(C)CC[C@H](O)C(C)(C)C5CC[C@]43C)C2[C@H]1C (stereo partly drawn) [10a, 1-(2-{[(3β)-3-Hydroxyurs-12-en-28-oyl]oxy}ethyl)-3-methylimidazolium bromide] | 11.01% | 10.43% | 5.01% | 0.71% |  |  |  |  |  |  | 59 ± 5 nM | 8 ± 1 nM | 27 ± 2 nM | 31 ± 2 nM | 17 ± 1 nM | 91 ± 9 nM
14 | C[C@@H]1CC[C@]2(C(=O)OCCCCCCn3cc[n+](C)c3)CC[C@]3(C)C(=CCC4[C@@]5(C)CC[C@H](O)C(C)(C)C5CC[C@]43C)C2[C@H]1C (stereo partly drawn) [10c] | 8.89% | 6.61% | 4.08% | 0.61% |  |  |  |  |  |  | 11 ± 1 nM | 2 ± 1 nM | 6 ± 1 nM | 7 ± 1 nM | 3 ± 1 nM | 24 ± 2 nM
15 | C=C(C)[C@@H]1CC[C@]2(C(=O)OCCn3cc[n+](C)c3)CC[C@]3(C)C(CCC4[C@@]5(C)CC[C@H](O)C(C)(C)C5CC[C@]43C)C12 (stereo partly drawn) [11a, 1-(2-{[(3β)-3-Hydroxylup-20(29)-en-28-oyl]oxy}ethyl)-3-methylimidazolium bromide] | 5.26% | 6.58% | 0.74% | 0.56% |  |  |  |  |  |  | 132 ± 12 nM | 22 ± 2 nM | 69 ± 3 nM | 76 ± 4 nM | 25 ± 1 nM | 237 ± 21 nM
16 | C=C(C)[C@@H]1CC[C@]2(C(=O)OCCCCCCn3cc[n+](C)c3)CC[C@]3(C)C(CCC4[C@@]5(C)CC[C@H](O)C(C)(C)C5CC[C@]43C)C12 (stereo partly drawn) [11c] | 25.72% | 15.59% | 1.82% | 4.37% |  |  |  |  |  |  | 36 ± 3 nM | 6 ± 1 nM | 19 ± 1 nM | 21 ± 1 nM | 39 ± 4 nM | 54 ± 5 nM
17 | C[n+]1ccn(CCCCCCOC(=O)[C@]23CCC(C)(C)CC2C2=CCC4[C@@]5(C)CC[C@H](O)C(C)(C)C5CC[C@@]4(C)[C@]2(C)CC3)c1 (stereo partly drawn) [13a, 1-(6-{[(3β)-3-Hydroxyolean-12-en-28-oyl]oxy}hexyl)-3-methylimidazolium Tetrafluoroborate] |  |  |  |  | 18 ± 2 nM | 2 ± 1 nM | 5 ± 1 nM | 6 ± 1 nM | 3 ± 1 nM | 24 ± 2 nM |  |  |  |  |  | 
18 | C[C@H](O)C(=O)[O-].C[n+]1ccn(CCCCCCOC(=O)[C@]23CCC(C)(C)CC2C2=CCC4[C@@]5(C)CC[C@H](O)C(C)(C)C5CC[C@@]4(C)[C@]2(C)CC3)c1 (stereo partly drawn) [13g, 1-(6-{[(3β)-3-Hydroxyolean-12-en-28-oyl]oxy}hexyl)-3-methylimidazolium L-lactate] | 97.4% |  |  |  | 13 ± 1 nM | 2 ± 1 nM | 13 ± 1 nM | 14 ± 1 nM | 7 ± 1 nM | 26 ± 2 nM |  |  |  |  |  | 
19 | CC1(C)CCC2(C(=O)[O-])CCC3(C)C(=CCC4C5(C)CCC(O)C(C)(C)C5CCC43C)C2C1.CC[n+]1ccn(C)c1 (stereo not drawn) [15a, 1-Ethyl-3-methylimidazolium (3β)-3-hydroxyolean-12-en-28-oylate] |  |  |  |  | 162 ± 12 nM | 34 ± 3 nM | 79 ± 5 nM | 88 ± 5 nM | 47 ± 3 nM | 359 ± 31 nM |  |  |  |  |  | 
20 | CCn1cc[n+](C)c1.C[C@H]1[C@H](C)CC[C@]2(C(=O)[O-])CC[C@]3(C)C(=CC[C@@H]4[C@@]5(C)CC[C@H](O)C(C)(C)[C@@H]5CC[C@]43C)[C@H]12 [16a, 1-Ethyl-3-methylimidazolium (3β)-3-hydroxyours-12-en-28-oylate] |  |  |  |  | 88 ± 7 nM | 18 ± 2 nM | 34 ± 2 nM | 36 ± 2 nM | 33 ± 2 nM | 178 ± 18 nM |  |  |  |  |  | 
